Reference: ChEMBL document CHEMBL1159343, “Isolation and structure of palstatin from the Amazon tree Hymeneae palustris(1)” (2003)
Converted amounts (≈) assume the structure as drawn. The source made the active and inactive calls. The rule behind the calls is not given here.

How the values were obtained:
[1] = system: SF-268; assay: Cytotoxicity against human SF268 cells after 48 hrs by SRB assay; assay type: functional; conditions: SF-268, 48 h
[2] = system: KM-20L2; assay: Cytotoxicity against human KM20L2 cells after 48 hrs by SRB assay; assay type: functional; conditions: KM-20L2, 48 h
[3] = system: Streptococcus pneumoniae; assay: Antimicrobial activity against Streptococcus pneumoniae; assay type: functional, organism-based
[4] = system: BXPC-3; assay: Cytotoxicity against human BxPC3 cells after 48 hrs by SRB assay; assay type: functional; conditions: BXPC-3, 48 h
[5] = system: DU-145; assay: Cytotoxicity against human DU145 cells after 48 hrs by SRB assay; assay type: functional; conditions: DU-145, 48 h
[6] = system: NCI-H460; assay: Cytotoxicity against human NCI-H460 cells after 48 hrs by SRB assay; assay type: functional; conditions: NCI-H460, 48 h
[7] = system: P388; assay: Cytotoxicity against mouse P388 cells after 48 hrs by SRB assay; assay type: functional; conditions: P388, 48 h
[8] = system: Micrococcus luteus; assay: Antimicrobial activity against Micrococcus luteus; assay type: functional, organism-based
[9] = system: Stenotrophomonas maltophilia; assay: Antimicrobial activity against Stenotrophomonas maltophilia; assay type: functional, organism-based
[10] = system: MCF7; assay: Cytotoxicity against human MCF7 cells after 48 hrs by SRB assay; assay type: functional; conditions: MCF7, 48 h
[11] = system: Candida albicans; assay: Antimicrobial activity against Candida albicans; assay type: functional, organism-based
[12] = system: Staphylococcus aureus; assay: Antimicrobial activity against Staphylococcus aureus; assay type: functional, organism-based
[13] = system: Escherichia coli; assay: Antimicrobial activity against Escherichia coli; assay type: functional
[14] = system: Neisseria gonorrhoeae; assay: Antimicrobial activity against Neisseria gonorrhoeae; assay type: functional
[15] = system: Enterobacter cloacae; assay: Antimicrobial activity against Enterobacter cloacae; assay type: functional, organism-based
[16] = system: Cryptococcus neoformans; assay: Antimicrobial activity against Cryptococcus neoformans; assay type: functional, organism-based

SMILES	GI50 [1] [µg/mL]	GI50 [2] [µg/mL]	Activity [3]	GI50 [4] [µg/mL]	GI50 [5] [µg/mL]	GI50 [6] [µg/mL]	GI50 [7] [µg/mL]	Activity [8]	Activity [9]	GI50 [10] [µg/mL]	Activity [11]	Activity [12]	MIC [13] [µg/mL]	MIC [14] [µg/mL]	Activity [15]	Activity [16]
COc1cc([C@H]2Oc3cc(-c4cc(=O)c5c(O)cc(O)cc5o4)cc(OC)c3O[C@@H]2CO)ccc1O	2.2 (≈ 4.45 µM)	1.9 (≈ 3.84 µM)	inactive	1.8 (≈ 3.64 µM)	1.8 (≈ 3.64 µM)	2 (≈ 4.04 µM)	2.7 (≈ 5.46 µM)	inactive	inactive	2.4 (≈ 4.85 µM)	inactive	inactive	32 (≈ 64.7 µM)	0.625 (≈ 1.26 µM)	inactive	inactive
COc1cc(-c2cc(=O)c3c(O)cc(O)cc3o2)ccc1O [CHRYSOERIOL]	1.7 (≈ 5.66 µM)	2.5 (≈ 8.33 µM)	inactive	2.6 (≈ 8.66 µM)	1.1 (≈ 3.66 µM)	2.1 (≈ 6.99 µM)	4 (≈ 13.3 µM)	inactive	inactive	3.1 (≈ 10.3 µM)	inactive	inactive			inactive	inactive
COc1cc([C@H]2Oc3cc(-c4cc(=O)c5c(O)cc(O)cc5o4)ccc3O[C@@H]2CO)ccc1O [HYDNOCARPIN]	2.6 (≈ 5.6 µM)	2 (≈ 4.31 µM)	inactive	1.5 (≈ 3.23 µM)	1.9 (≈ 4.09 µM)	2.3 (≈ 4.95 µM)	9.5 (≈ 20.5 µM)	inactive	inactive	2.7 (≈ 5.81 µM)	inactive	inactive		0.5 (≈ 1.08 µM)	inactive	inactive
O=c1cc(-c2ccc(O)c(O)c2)oc2cc(O)cc(O)c12 [LUTEOLIN]	9 (≈ 31.4 µM)	> 10	inactive	> 10	4.4 (≈ 15.4 µM)	3.8 (≈ 13.3 µM)	> 10	inactive	inactive	9.4 (≈ 32.8 µM)	inactive	inactive	64 (≈ 224 µM)	16 (≈ 55.9 µM)	inactive	inactive
COc1cc([C@H]2Oc3cc(-c4cc(=O)c5c(O)cc(O)cc5o4)cc(OC)c3O[C@@H]2CO)cc(OC)c1O [PALSTATIN]	> 10	> 10	inactive	3.2 (≈ 6.1 µM)	> 10	5.9 (≈ 11.2 µM)	8.5 (≈ 16.2 µM)	inactive	inactive	3.6 (≈ 6.86 µM)	inactive	inactive		1 (≈ 1.91 µM)	inactive	inactive
COc1cc(-c2cc(=O)c3c(O)cc(O)cc3o2)cc(OC)c1O [TRICIN]	3 (≈ 9.08 µM)	> 10	inactive	7.5 (≈ 22.7 µM)	4.6 (≈ 13.9 µM)	6.5 (≈ 19.7 µM)	> 10	inactive	inactive	7.7 (≈ 23.3 µM)	inactive	inactive			inactive	inactive
